Read-outs that look alike come from different tables or passages of the source.
Key:
Assay type in all cases: in vivo
Setaria viridis (SETVI) [1] = assay: Post-emergence herbicidal action against SETVI
Method: (§1) Seeds of monocotyledonous and dicotyledonous weeds and crop plants are placed in sandy loam in plastic or organic planting pots, covered with soil and cultivated in a greenhouse under controlled growth conditions. 2 to 3 weeks after sowing, the test plants are treated at the one-leaf stage. The compounds of the invention, formulated in the form of wettable powders (WP) or as emulsion concentrates (EC), are then sprayed onto the green parts of the plants as aqueous suspension or emulsion with addition of 0.5% additive at a water application rate of 600 l/ha (converted). After the test plants have been kept in the greenhouse under optimum growth conditions for about 3 weeks, the activity of the preparations is rated visually in comparison to untreated controls. For example, 100% activity=the plants have died, 0% activity=like control plants.
(§2) Tables B1 to B13 below show the effects of selected compounds of the general formula (I) according to Table 1 on various harmful plants and at an application rate corresponding to 320 g/ha or lower, which were obtained by the experimental procedure mentioned above. The appendices “a”, “b” and “c” give differentiation by dosage used with otherwise the same harmful plants tested.

[2] = tested on: Polygonum convolvulus (POLCO); assay: Post-emergence herbicidal action against POLCO
Method: as §1, §2

Viola tricolor (VIOTR) [3] = assay: Pre-emergence herbicidal action against VIOTR
Excerpt: (§3) Seeds of monocotyledonous and dicotyledonous weed plants and crop plants are placed in plastic or organic planting pots and covered with soil. The compounds of the invention, formulated in the form of wettable powders (WP) or as emulsion concentrates (EC), are then applied to the surface of the covering soil as aqueous suspension or emulsion with addition of 0.5% additive at a water application rate equivalent to 600 l/ha. After the treatment, the pots are placed in a greenhouse and kept under good growth conditions for the trial plants. After about 3 weeks, the effect of the preparations is scored visually in comparison with untreated controls as percentages. For example, 100% activity=the plants have died, 0% activity=like control plants.
(§4) Tables A1 to A13 below show the effects of selected compounds of the general formula (I) on various harmful plants and at an application rate corresponding to 320 g/ha or lower, which were obtained by the experimental procedure mentioned above. The appendices “a”, “b” and “c” give differentiation by dosage used with otherwise the same harmful plants tested.

[4] = tested on: Matricaria inodora (MATIN); assay: Pre-emergence herbicidal action against MATIN; conditions: dosage 320 g/ha
Excerpt: as §3, §4

[5] = tested on: Pharbitis purpurea (PHBPU); assay: Pre-emergence herbicidal action against PHBPU; conditions: dosage 320 g/ha
Excerpt: as §3, §4

[6] = tested on: Amaranthus retroflexus (AMARE); assay: Pre-emergence herbicidal action against AMARE; conditions: visual scoring after about 3 weeks vs untreated controls
Excerpt: as §3, §4

[7] = tested on: Alopecurus myosuroides (ALOMY); assay: Post-emergence herbicidal action against ALOMY; conditions: visual rating about 3 weeks after treatment vs untreated controls (100% = plants have died, 0% = like control plants)
Method: as §1, §2

Setaria viridis (SETVI) [8] = assay: Pre-emergence herbicidal action against SETVI
Excerpt: as §3, §4

Lolium rigidum (LOLRI) [9] = assay: Pre-emergence herbicidal action against LOLRI
Excerpt: as §3, §4

[10] = tested on: Echinochloa crus-galli (ECHCG); assay: Post-emergence herbicidal action against ECHCG
Method: as §1, §2

Zea mays (ZEAMX) = conditions: for Post-emergence action against ZEAMX in %: crop plant compatibility, 80 g/ha, effect vs untreated controls
Method: as §1
(§5) The observed effects on selected crop plants are reported here in comparison to the untreated controls (values in %). The appendices “a”, “b” and “c” give differentiation by dosage used with otherwise the same crop plants tested.

Oryza sativa (ORYSA) = conditions: crop plant compatibility
Method: as §1, §5

[11] = tested on: Pharbitis purpurea (PHBPU); assay: Post-emergence herbicidal action against PHBPU
Method: as §1, §2

[12] = tested on: Alopecurus myosuroides (ALOMY); assay: Pre-emergence herbicidal action against ALOMY; conditions: scored visually after about 3 weeks, 100% = plants have died
Excerpt: as §3, §4

Avena fatua (AVEFA) [13] = assay: Post-emergence herbicidal action against AVEFA; conditions: visual rating about 3 weeks after treatment
Method: as §1, §2

Viola tricolor (VIOTR) [14] = assay: Post-emergence herbicidal action against VIOTR
Method: as §1, §2

[15] = tested on: Amaranthus retroflexus (AMARE); assay: Post-emergence herbicidal action against AMARE
Method: as §1, §2

[16] = tested on: Echinochloa crus-galli (ECHCG); assay: Pre-emergence herbicidal action against ECHCG
Excerpt: as §3, §4

[17] = tested on: Matricaria inodora (MATIN); assay: Post-emergence herbicidal action against MATIN
Method: as §1, §2

[18] = tested on: Verconica persica (VERPE); assay: Pre-emergence herbicidal action against VERPE
Excerpt: as §3, §4

Avena fatua (AVEFA) [19] = assay: Pre-emergence herbicidal action against AVEFA; conditions: visual scoring after about 3 weeks vs untreated controls
Excerpt: as §3, §4

[20] = tested on: Polygonum convolvulus (POLCO); assay: Pre-emergence herbicidal action against POLCO
Excerpt: as §3, §4

[21] = tested on: Verconica persica (VERPE); assay: Post-emergence herbicidal action against VERPE
Method: as §1, §2

[22] = tested on: Abutilon theophrasti (ABUTH); assay: Post-emergence herbicidal action against ABUTH; conditions: 320 g/ha, visual rating about 3 weeks after treatment vs untreated controls (100% = plants have died, 0% = like control plants)
Method: as §1, §2

Lolium rigidum (LOLRI) [23] = assay: Post-emergence herbicidal action against LOLRI; conditions: dosage 320 g/ha
Method: as §1, §2

[24] = 80 g/ha, effect in comparison to untreated controls
[25] = 80 g/ha, visual rating about 3 weeks after treatment vs untreated controls (100% = plants have died, 0% = like control plants)
[26] = 320 g/ha, visual rating about 3 weeks after treatment

Post-emergence action against ZEAMX in % (Zea mays (ZEAMX)) [%]	Post-emergence action against ORYSA in % (Oryza sativa (ORYSA); [24]) [%]	Structure (SMILES)	Post-emergence action against SETVI in % (Setaria viridis (SETVI) [1]; dosage 320 g/ha) [%]	Post-emergence action against POLCO in % ([2]; dosage 320 g/ha) [%]	Pre-emergence action against VIOTR in % (Viola tricolor (VIOTR) [3]; 320 g/ha, Viola tricolor) [%]	Pre-emergence action against VIOTR in % (Viola tricolor (VIOTR) [3]; dosage 80 g/ha) [%]	Pre-emergence action against MATIN in % [4] [%]	Pre-emergence action against PHBPU in % [5] [%]	Pre-emergence action against AMARE in % ([6]; 320 g/ha) [%]	Post-emergence action against ALOMY in % ([7]; 320 g/ha) [%]	Pre-emergence action against SETVI in % (Setaria viridis (SETVI) [8]; dosage 320 g/ha) [%]	Pre-emergence action against LOLRI in % (Lolium rigidum (LOLRI) [9]; dosage 320 g/ha) [%]	Post-emergence action against ECHCG in % ([10]; dosage 80 g/ha) [%]	Post-emergence action against ECHCG in % ([10]; dosage 320 g/ha) [%]	Post-emergence action against PHBPU in % ([11]; dosage 320 g/ha) [%]	Pre-emergence action against ALOMY ([12]; 320 g/ha) [%]	Post-emergence action against AVEFA in % (Avena fatua (AVEFA) [13]; 80 g/ha) [%]	Post-emergence action against AVEFA in % (Avena fatua (AVEFA) [13]; 320 g/ha) [%]	Post-emergence action against AMARE in % [15, 25] [%]	Pre-emergence action against ECHCG in % ([16]; dosage 320 g/ha) [%]	other results
10	0	O=C(O)CSc1nn(-c2ccccn2)c(-c2cncc(F)c2)c1C1CC1 [Example I-153]	80	80	100	90	80	80	100	80	90	80	80	90	90	90	80	90	90	100	Post-emergence action against PHBPU in % ([11]; dosage 80 g/ha): 80%; Post-emergence action against VIOTR in % (Viola tricolor (VIOTR) [14]; 320 g/ha): 80%; Post-emergence action against AMARE in % [15, 26]: 90%; Pre-emergence action against ECHCG in % ([16]; dosage 80 g/ha): 80%; Post-emergence action against MATIN in % ([17]; dosage 320 g/ha): 80%
	10	COC(=O)CCOC(=O)COc1nn(-c2ccccn2)c(-c2ccc(F)nc2)c1Br [Example I-116]			90		90	90	100		100	100	80			100			90	100	Post-emergence action against SETVI in % (Setaria viridis (SETVI) [1]; dosage 80 g/ha): 80%; Pre-emergence action against VERPE in % ([18]; dosage 80 g/ha): 90%; Pre-emergence action against VERPE in % ([18]; dosage 320 g/ha): 90%; Pre-emergence action against AMARE in % ([6]; 80 g/ha): 90%; Post-emergence action against ALOMY in % ([7]; 80 g/ha): 90%; Pre-emergence action against SETVI in % (Setaria viridis (SETVI) [8]; dosage 80 g/ha): 90%; Pre-emergence action against AVEFA in % (Avena fatua (AVEFA) [19]; 320 g/ha): 90%; Pre-emergence action against POLCO in % ([20]; dosage 320 g/ha): 90%; Post-emergence action against ZEAMX in % (crop plant compatibility) (Zea mays (ZEAMX); 20 g/ha, ZEAMX, effect in comparison to untreated controls): 20%; Post-emergence action against ORYSA in % (Oryza sativa (ORYSA); 20 g/ha, effect vs untreated controls): 10%; Post-emergence action against VERPE in % ([21]; dosage 80 g/ha): 80%; Pre-emergence action against ALOMY ([12]; 80 g/ha): 90%; Post-emergence action against MATIN in % ([17]; dosage 80 g/ha): 80%
20	20	CC(Oc1nn(-c2ccccn2)c(-c2ccc(F)nc2)c1C(F)(F)F)C(=O)O (stereo not shown) [Example I-94]	90	90	100	100	100		100	100	100	100		90	80	100	80	100	90	80	Post-emergence action against SETVI in % (Setaria viridis (SETVI) [1]; dosage 80 g/ha): 80%; Post-emergence action against POLCO in % ([2]; dosage 80 g/ha): 80%; Post-emergence action against ABUTH in % [22]: 80%; Pre-emergence action against VERPE in % ([18]; dosage 320 g/ha): 90%; Pre-emergence action against AMARE in % ([6]; 80 g/ha): 80%; Post-emergence action against LOLRI in % (Lolium rigidum (LOLRI) [23]): 100%; Post-emergence action against ALOMY in % ([7]; 80 g/ha): 80%; Pre-emergence action against LOLRI in % (Lolium rigidum (LOLRI) [9]; dosage 80 g/ha): 100%; Pre-emergence action against AVEFA in % (Avena fatua (AVEFA) [19]; 80 g/ha): 80%; Pre-emergence action against AVEFA in % (Avena fatua (AVEFA) [19]; 320 g/ha): 90%; Pre-emergence action against POLCO in % ([20]; dosage 80 g/ha): 90%; Pre-emergence action against POLCO in % ([20]; dosage 320 g/ha): 90%; Post-emergence action against VERPE in % ([21]; 320 g/ha, VERPE): 90%; Pre-emergence action against ALOMY ([12]; 80 g/ha): 80%; Post-emergence action against VIOTR in % (Viola tricolor (VIOTR) [14]; 80 g/ha): 90%; Post-emergence action against VIOTR in % (Viola tricolor (VIOTR) [14]; 320 g/ha): 90%; Post-emergence action against AMARE in % [15, 26]: 90%; Post-emergence action against MATIN in % ([17]; dosage 320 g/ha): 80%

— patent US20240041042A1, “1-(PYRIDYL)-5-AZINYLPYRAZOLE DERIVATIVES, AND THEIR USE FOR CONTROL OF UNDESIRED PLANT GROWTH” (Bayer Aktiengesellschaft, priority 2020, published 2024)
